From patent US11691962B2 (eXIthera Pharmaceuticals, Inc., priority 2018, dated 2023)

Biological target: Factor XIa (Homo sapiens (Human), UniProt P03951)
Experiment: Factor XIa enzyme inhibition assay (dose response, fluorogenic AMC substrate)
Assay type: biochemical
Settings: read-out: hFXIa IC50
Experimental: • Assay buffer: 20 mM Hepes, pH 7.4; 150 mM NaCl; 0.02% Tween 20 • Compounds: 10 mM stocks in DMSO • Substrate: 20 mM Glp-Pro-Arg-AMC, 25 mg/2.3 mL H2O (store at +4° C.) [Factor XIa, thrombin, and trypsin] • 20 mM Pro-Phe-Arg-AMC (Bachem I-1295), 25 mg/2.2 mL H2O • or Boc-Leu-Gly-Arg-AMC (Bachem I-1105), 25 mg/2.07 mL H2O • (store at +4° C.) [Factor Xa] • Enzyme: Factor XIa; 0.25 μM in 50% glycerol (20 μg/mL) • Trypsin; 0.2 μM in 50% glycerol (4.8 μg/mL) • Thrombin; 0.2 μM in 50% glycerol (7.34 μg/mL) • Factor Xa; 0.2 μM in 50% glycerol (9.2 μg/mL) • These stocks are aliquoted (˜100 μL/aliquot) and stored at −20° C. Methods: • 1. Dilute the substrate to 100 μM in assay buffer (30 μL/6 mL). The enzyme is diluted to 0.5 nM just prior to use (12 μL/6 mL for Factor XIa; 15 μL/6 mL for all of the rest.) • 2. Pipette 50 μL of substrate into each well of the 96 well (12×8) microtiter plate. (Column 1 is used as the 100% activity control and receives no compound, and Column 12 is the blank and receives no enzyme.) Add an additional 46 μL to column 2. • 3. Pipette 4 μL of each compound into the appropriate well in column 2 of the plate (unknowns assayed in triplicate, standard assayed in duplicate). The final compound concentration will be […] of the stock. • 4. Serially two-fold dilute the compound by mixing the sample in column 2, removing 50 μL to the next well (column 3), mix and remove to column 4, etc. until column 11. After mixing column 11, remove 50 μL and discard. • 5. Pipette 50 μL of buffer into column 12. Initiate the reaction by adding 50 μL of enzyme solution to each well of columns 1-11 as rapidly as possible. • 6. Read the plate in a spectrophotometer (SpectraMax) at 30° C., wherein each well is measured every 60 s for 30 min. For Factor Xa assays, each well is measured every 1 min for a total of 60 min. • 7. For Factor XIa assays, the compounds are assayed, in duplicate, at 3 different starting concentrations, 20, 2, and 0.2 μM; 1:10, 1:100, and 1:1000 dilution of 10 mM stock or at 2, 0.2, and 0.02 μM; 1:100, 1:1000, and 1:10,000 dilution of 10 mM stock. Data for each concentration are combined for graphing and data fitting. • 8. Data can be used both for estimation of IC50 and for estimation of Kon.
Potential inhibitors of Factor XIa were evaluated using the following assay.
PyroGlu-Pro-Arg-7-methylaminocourin (AMC), available from CPC Scientific, Inc., is based on the substrate pyro-Glu-Pro-Arg-pNA (S-2366), available from Diapharma Group, Inc. (Columbus, Ohio), wherein the p-nitroanaline group is replaced with 7-methylaminocoumarin (AMC).
The final concentration of the substrate in the assay was 50 μM, and the final concentration of the enzyme was 0.25 nM. Inhibitors were tested by serial dilution over an appropriate range to yield a dose response curve for determination of the inhibitors' IC50 value. The assay mixture was read every minute for 30 minutes in order to generate progress curves. The plates were read in a Spectramax m5 Multimode Plate Reader (Molecular Devices LLC, Sunnyvale, Calif.). Dose response curves were fit to Equation 1 below in which A is the maximum inhibition, B is the minimum inhibition, C is the IC50, and D is the Hill coefficient. Y=[(A−B)/(1+(X/C)^D)]+B (Equation 1)

Factor XIa, sequence (P03951 388-625): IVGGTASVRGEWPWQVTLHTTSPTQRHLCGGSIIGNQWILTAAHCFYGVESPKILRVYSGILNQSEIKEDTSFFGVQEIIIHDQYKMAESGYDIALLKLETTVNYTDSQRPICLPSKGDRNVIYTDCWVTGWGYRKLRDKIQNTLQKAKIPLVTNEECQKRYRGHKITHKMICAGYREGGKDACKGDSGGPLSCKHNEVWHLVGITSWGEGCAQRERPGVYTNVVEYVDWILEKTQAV
Factor XIa, sequence (P03951 19-387 partner): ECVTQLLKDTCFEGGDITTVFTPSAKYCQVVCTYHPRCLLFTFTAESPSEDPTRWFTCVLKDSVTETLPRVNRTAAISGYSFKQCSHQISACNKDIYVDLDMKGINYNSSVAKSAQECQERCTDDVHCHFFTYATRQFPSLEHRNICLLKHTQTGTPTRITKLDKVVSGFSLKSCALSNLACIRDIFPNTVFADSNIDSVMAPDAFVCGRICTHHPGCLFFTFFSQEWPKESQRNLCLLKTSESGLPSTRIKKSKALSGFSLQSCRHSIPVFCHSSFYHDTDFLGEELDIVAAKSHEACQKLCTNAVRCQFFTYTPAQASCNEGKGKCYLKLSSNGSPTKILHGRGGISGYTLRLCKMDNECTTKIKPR

IC50 [nM] | Compound
10 to 100 | CC[C@H](c1cccc(Cl)c1)N(C)C(=O)N1C(=O)[C@H](Cc2ccnc(N)c2)[C@H]1C(=O)N(C)c1ccnn1C [Compound 1-60, (2S,3R)-3-((2-aminopyridin-4-yl)methyl)-N2-(1-methyl-1H-pyrazol-5-yl)-N1-((R)-1-(3-chlorophenyl)propyl)-N1-methyl-N2-methyl-4-oxoazetidine-1,2-dicarboxamide]
10 to 100 | CC[C@@H](NC(=O)N1C(=O)[C@H](Cc2cc(C)nc(NC)c2)[C@H]1C(=O)N(C)c1ccnn1C)c1ccccc1 [Compound 1-61, (2S,3R)-3-((2-methylamino-6-methylpyridin-4-yl)methyl)-N2-(1-methyl-1H-pyrazol-5-yl)-N1-((R)-1-phenylpropyl)-N2-methyl-4-oxoazetidine-1,2-dicarboxamide]
100 to 1000 | CNC(=O)N1C(=O)[C@H](Cc2ccnc(N)c2)[C@H]1C(=O)N(C)c1ccn(C)n1 [Compound 1-64, (2S,3R)-3-((2-aminopyridin-4-yl)methyl)-N2-(1-methyl-1H-pyrazol-3-yl)-N1-methyl-N2-methyl-4-oxoazetidine-1,2-dicarboxamide]
10 to 100 | CC[C@@H](NC(=O)N1C(=O)[C@H](Cc2cc(C)nc(NC)c2)[C@H]1C(=O)N(C)c1cnn(C)c1)c1ccccc1 [Compound 1-66, (2S,3R)-3-((2-methylamino-6-methylpyridin-4-yl)methyl)-N2-(1-methyl-1H-pyrazol-4-yl)-N1-((R)-1-phenylpropyl)-N2-methyl-4-oxoazetidine-1,2-dicarboxamide]
10 to 100 | CCC[C@@H](NC(=O)N1C(=O)[C@H](Cc2ccnc(N)c2)[C@H]1C(=O)N(C)c1ccn(C)n1)C1CCCCC1 [Compound 1-68, (2S,3R)-3-((2-aminopyridin-4-yl)methyl)-N2-(1-methyl-1H-pyrazol-3-yl)-N1-((R)-1-cyclohexylbutyl)-N2-methyl-4-oxoazetidine-1,2-dicarboxamide]
10 to 100 | CCCC[C@@H](NC(=O)N1C(=O)[C@H](Cc2ccnc(N)c2)[C@H]1C(=O)N(C)c1ccn(C)n1)C1CCCCC1 [Compound 1-73, (2S,3R)-3-((2-aminopyridin-4-yl)methyl)-N2-(1-methyl-1H-pyrazol-3-yl)-N1-((R)-1-cyclohexylpentyl)-N2-methyl-4-oxoazetidine-1,2-dicarboxamide]
10 to 100 | CC[C@@H](NC(=O)N1C(=O)[C@H](Cc2cc(C)nc(N)c2)[C@H]1C(=O)N(C)c1nccn1C)C1CCCCC1 [Compound 1-75, (2S,3R)-3-((2-amino-6-methylpyridin-4-yl)methyl)-N2-(1-methyl-1H-imidazol-2-yl)-N1-((R)-1-cyclohexylpropyl)-N2-methyl-4-oxoazetidine-1,2-dicarboxamide]
10 to 100 | CC[C@@H](NC(=O)N1C(=O)[C@H](Cc2cc(C)nc(N)c2)[C@H]1C(=O)N(C)c1cn(C)cn1)C1CCCCC1 [Compound 1-76, (2S,3R)-3-((2-amino-6-methylpyridin-4-yl)methyl)-N2-(1-methyl-1H-imidazol-4-yl)-N1-((R)-1-cyclohexylpropyl)-N2-methyl-4-oxoazetidine-1,2-dicarboxamide]
10 to 100 | CC[C@@H](NC(=O)N1C(=O)[C@H](Cc2ccnc(N)c2)[C@H]1C(=O)N(C)c1c(C)cnn1C)c1ccccc1 [Compound 1-78, (2S,3R)-3-((2-aminopyridin-4-yl)methyl)-N2-(1,4-dimethyl-1H-pyrazol-5-yl)-N1-((R)-1-phenylpropyl)-N2-methyl-4-oxoazetidine-1,2-dicarboxamide]
10 to 100 | CC[C@@H](NC(=O)N1C(=O)[C@H](Cc2cc(C)nc(N)c2)[C@H]1C(=O)N(C)c1nccn1C)c1ccc(C)nc1 [Compound 1-82, (2S,3R)-3-((2-amino-6-methylpyridin-4-yl)methyl)-N2-(1-methyl-1H-imidazol-2-yl)-N1-((R)-1-(6-methylpyridin-3-yl)propyl)-N2-methyl-4-oxoazetidine-1,2-dicarboxamide]
10 to 100 | CC(C)[C@@H](NC(=O)N1C(=O)[C@H](Cc2ccnc(N)c2)[C@H]1C(=O)N(C)c1nccn1C)c1ccccc1 [Compound 1-85, (2S,3R)-3-((2-aminopyridin-4-yl)methyl)-N2-(1-methyl-1H-imidazol-2-yl)-N1-((R)-1-phenyl-2-methylpropyl)-N2-methyl-4-oxoazetidine-1,2-dicarboxamide]
100 to 1000 | CC[C@@H](NC(=O)N1C(=O)[C@H](Cc2ccnc(N)c2)[C@H]1C(=O)N(C)c1nccn1C)c1cccc(F)c1C [Compound 1-86, (2S,3R)-3-((2-aminopyridin-4-yl)methyl)-N2-(1-methyl-1H-imidazol-2-yl)-N1-((R)-1-(3-fluoro-2-methylphenyl)propyl)-N2-methyl-4-oxoazetidine-1,2-dicarboxamide]
10 to 100 | CC[C@H](NC(=O)N1C(=O)[C@H](Cc2ccnc(N)c2)[C@H]1C(=O)N(C)c1ccn(C)n1)c1cccc(Cl)c1 [Compound 1-93, (2S,3R)-3-((2-aminopyridin-4-yl)methyl)-N2-(1-methyl-1H-pyrazol-3-yl)-N1-((S)-1-(3-chlorophenyl)propyl)-N2-methyl-4-oxoazetidine-1,2-dicarboxamide]
10 to 100 | CC[C@@H](NC(=O)N1C(=O)[C@H](Cc2ccnc(N)c2)[C@H]1C(=O)N(C)c1nccn1C)c1ccc(C)nc1C [Compound 1-95, (2S,3R)-3-((2-aminopyridin-4-yl)methyl)-N2-(1-methyl-1H-imidazol-2-yl)-N1-((R)-1-(2,6-dimethylpyridin-3-yl)propyl)-N2-methyl-4-oxoazetidine-1,2-dicarboxamide]
100 to 1000 | CC[C@H](NC(=O)N1C(=O)[C@H](Cc2ccnc(N)c2)[C@H]1C(=O)N(C)c1nccn1C)c1ccc(C)nc1C [Compound 1-96, (2S,3R)-3-((2-aminopyridin-4-yl)methyl)-N2-(1-methyl-1H-imidazol-2-yl)-N1-((S)-1-(2,6-dimethylpyridin-3-yl)propyl)-N2-methyl-4-oxoazetidine-1,2-dicarboxamide]
10 to 100 | CC[C@@H](NC(=O)N1C(=O)[C@H](Cc2cc(C)nc(N)c2)[C@H]1C(=O)N(C)c1nccn1C)c1cc(C)ccc1C [Compound 1-108, (2S,3R)-3-((2-amino-6-methylpyridin-4-yl)methyl)-N2-(1-methyl-1H-imidazol-2-yl)-N1-((R)-1-(2,5-dimethylphenyl)propyl)-N2-methyl-4-oxoazetidine-1,2-dicarboxamide]
< 10 | CC[C@@H](NC(=O)N1C(=O)[C@H](Cc2ccnc(N)c2)[C@H]1C(=O)N(C)c1nccn1C)c1ccc(C)cc1Cl [Compound 1-116, (2S,3R)-3-((2-aminopyridin-4-yl)methyl)-N2-(1-methyl-1H-imidazol-2-yl)-N1-((R)-1-(2-chloro-4-methylphenyl)propyl)-N2-methyl-4-oxoazetidine-1,2-dicarboxamide]
< 10 | CC[C@@H](NC(=O)N1C(=O)[C@H](Cc2ccnc(N)c2)[C@H]1C(=O)N(C)c1nccn1C)c1ccc(F)c(C)c1 [Compound 1-117, (2S,3R)-3-((2-aminopyridin-4-yl)methyl)-N2-(1-methyl-1H-imidazol-2-yl)-N1-((R)-1-(3-methyl-4-fluorophenyl)propyl)-N2-methyl-4-oxoazetidine-1,2-dicarboxamide]
< 10 | CC[C@@H](NC(=O)N1C(=O)[C@H](Cc2ccnc(N)c2)[C@H]1C(=O)N(C)c1nccn1C)c1ccc(Cl)cc1C [Compound 1-118, (2S,3R)-3-((2-aminopyridin-4-yl)methyl)-N2-(1-methyl-1H-imidazol-2-yl)-N1-((R)-1-(4-chloro-2-methylphenyl)propyl)-N2-methyl-4-oxoazetidine-1,2-dicarboxamide]
